Experiment [1] addresses T1, phosphorylated EGFR (pEGFR) (Homo sapiens, UniProt P00533).
T1 construct: performed to measure phosphorylated EGFR levels using A431 cells (10% FBS); endogenous in cells; host or cells: A431
The experiment is described as follows: Detection of phosphorylated EGFR (pEGFR) by AlphaLISA in EGF-stimulated A431 cells. The settings on record: A431 cells (10% FBS), 4 hours incubation, EGF 30 ng/mL for 10 minutes. The format is cell-based. As to the method: Enzyme-linked immunosorbent assays (ELISA) were performed to measure phosphorylated EGFR levels using A431 cells (10% FBS). A431 (1.0*10^4 cells/40 μl/well) cells were seeded in 384 well. Compounds were dissolved in DMSO, serially diluted in DMSO and then were added, mixed, and incubated for 4 hours at 37° C., 5% C02. Following the 4-hours incubation, cells were stimulated for 10 minutes with EGF (Invitrogen, cat #PHG0311) at a final concentration of 30 ng/mL in the incubator. The media was aspirated and cells were lysed in 10 μL lysis buffer with protease and phosphatase inhibitors (PerkinElmer, cat #ALSU-PEGFR-A50K). The plates were placed on a shaker for 5 μminutes and then incubated for 30 min at 4° C. for complete lysis. The lysate was transferred to an Optiplate (Perkin Elmer, cat #6007290).
Acceptor mix (PerkinElmer, cat #ALSU-PEGFR-A50K) was prepared just before use and 5 μL was dispensed to all the wells, followed by a 1.5-2 h incubation at room temperature in dark. The donor mix (PerkinElmer, cat #ALSU-PEGFR-A50K) was prepared under low light conditions prior to use and 5 μl of donor mix was added to all the wells under subdued lighting or green filters. The plates were placed on a shaker for 5 μmin, sealed, and incubated overnight at room temperature in dark. Plates were read on the Envision (PerkinElmer) using standard AlphaLISA settings.
The percentage of inhibition on EGFR phosphorylation was calculated following equation: % Inhibition=100×(LumHC−LumSample)/(LumHC−LumLC). The low and high controls (LC/HC) are generated from lysate from wells with cells treated with DMSO or […] Staurosporine (BioAustralis, cat #BIA-S1086), […]. IC50 values were calculated by fitting the Curve using XLfit (v5.3.1.3), equation 201: Y=Bottom+(Top−Bottom)/(1+10^((Log IC50−X)*HillSlope)).
In general terms: Alpha assays give light when donor and acceptor beads are brought close together.

The target of experiment [2] is T2, phosphorylated ERBB2 (pERBB2) (Homo sapiens, UniProt P04626).
T2 construct: endogenous in cells; host or cells: BT-474
In words: Detection of phosphorylated ERBB2 (pERBB2) by ELISA in BT-474 cells. As to conditions: four hour incubation. Format: cell-based. The procedure:
BT-474 cells were seeded into a 96-well at 2.0*10^4 cells/100 μl/well. Compounds were dissolved and serially diluted in DMSO. The compounds were then were added, mixed, and incubated for four hours at 37° C., 5% CO2. Compounds were added using four-fold dilutions at final concentrations ranging from 10 μM to 0.01 nM. Following the four hour incubation with compounds, cell lysates were prepared. Plates were centrifuged for 5 μmin at 3000 RPM, and supernatant was removed from each well. Cells were washed 3 times by resuspension in 150 μl PBS, followed by centrifugation and removal of the supernatant, as above. 100 μl of cell lysis buffer (Boston BioProducts, cat #BP-115D) supplied with 1× complete ULTRA cocktail inhibitor (Thermo ScientificTM, cat #78443) was then added to the washed cells. Cells were incubated with lysis buffer for 1 hour at 4° C., and then stored at -80° C. Enzyme-linked immunosorbent assays (ELISA) were performed to measure phosphorylated ERBB2 levels. […] The next day, plates were washed with PBS+0.05% Tween20 (PBST). 150 μl of 5% BSA blocking solution was added for 1 hour at room temperature, with shaking. Plates were washed with PBST. Cell lysates were thawed and 100 μl of lysate was added to the ELISA plate. The plates were incubated for 2 hours at room temperature, with shaking. ELISA plates were then washed with PBST and 100 μl of an HRP-labeled detection antibody that binds phosphorylated tyrosine (R&D Systems, cat #841913) was added to each well. Plates were incubated for 1 hour at room temperature, with shaking. Plates were then washed with PBST, and 100 μl TMB substrate solution (R&D Systems, cat #DY999) was added. Plate were incubated in the dark for 20 minutes at room temperature. 50 μl of Stop solution (R&D Systems, cat #DY994) (50 μl) was added to each well and mixed. Optical density at 450 nm was read on an EnSpire plate reader (Perkin Elmer). The remaining kinase activity by calculated using the following formula: % Relative activity=100×([…]). The low and high control values (“LC” and “HC”) were generated from lysate from wells without cells or with cells treated with 0.1% DMSO, respectively.

The results in this text go back to patent publication US20260078135A1, “POLYCYCLIC QUINAZOLINES FOR INHIBITION OF ERBB2” (Enliven Inc., priority 2022, published 2026).

One may read the IC50 as the concentration at which inhibition is half-maximal. The low end stands for higher potency, the high end for lower potency.

T1 sequence (P00533 25-1210): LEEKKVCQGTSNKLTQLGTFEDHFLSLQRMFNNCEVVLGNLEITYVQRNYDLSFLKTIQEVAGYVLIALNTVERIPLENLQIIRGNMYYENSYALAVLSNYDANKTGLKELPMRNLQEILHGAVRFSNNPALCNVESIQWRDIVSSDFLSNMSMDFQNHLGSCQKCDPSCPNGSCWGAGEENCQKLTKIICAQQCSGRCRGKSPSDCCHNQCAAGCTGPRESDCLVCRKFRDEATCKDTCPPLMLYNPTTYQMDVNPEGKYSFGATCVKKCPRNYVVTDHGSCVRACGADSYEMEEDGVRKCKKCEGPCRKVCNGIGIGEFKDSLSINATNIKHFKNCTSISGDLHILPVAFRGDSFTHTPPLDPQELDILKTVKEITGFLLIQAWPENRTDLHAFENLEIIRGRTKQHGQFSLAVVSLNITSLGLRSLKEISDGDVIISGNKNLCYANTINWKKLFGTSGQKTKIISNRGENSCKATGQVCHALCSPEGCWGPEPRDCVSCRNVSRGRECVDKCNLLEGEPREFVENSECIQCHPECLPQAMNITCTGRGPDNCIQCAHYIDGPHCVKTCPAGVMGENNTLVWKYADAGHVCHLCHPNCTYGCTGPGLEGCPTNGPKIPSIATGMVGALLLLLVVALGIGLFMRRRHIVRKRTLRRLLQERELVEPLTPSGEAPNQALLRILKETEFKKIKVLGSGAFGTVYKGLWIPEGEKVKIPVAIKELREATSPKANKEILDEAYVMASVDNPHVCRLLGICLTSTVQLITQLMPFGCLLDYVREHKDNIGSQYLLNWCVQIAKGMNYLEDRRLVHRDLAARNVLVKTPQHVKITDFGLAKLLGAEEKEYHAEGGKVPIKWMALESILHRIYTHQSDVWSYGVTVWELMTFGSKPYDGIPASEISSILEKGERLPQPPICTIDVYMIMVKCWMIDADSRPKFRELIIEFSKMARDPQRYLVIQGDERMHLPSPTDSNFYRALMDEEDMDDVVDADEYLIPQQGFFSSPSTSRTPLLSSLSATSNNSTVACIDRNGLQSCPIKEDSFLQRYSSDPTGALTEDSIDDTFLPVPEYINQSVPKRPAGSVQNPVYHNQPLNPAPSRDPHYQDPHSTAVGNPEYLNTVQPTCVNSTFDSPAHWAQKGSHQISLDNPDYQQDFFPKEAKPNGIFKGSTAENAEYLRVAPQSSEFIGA
T2 sequence (P04626 23-1255): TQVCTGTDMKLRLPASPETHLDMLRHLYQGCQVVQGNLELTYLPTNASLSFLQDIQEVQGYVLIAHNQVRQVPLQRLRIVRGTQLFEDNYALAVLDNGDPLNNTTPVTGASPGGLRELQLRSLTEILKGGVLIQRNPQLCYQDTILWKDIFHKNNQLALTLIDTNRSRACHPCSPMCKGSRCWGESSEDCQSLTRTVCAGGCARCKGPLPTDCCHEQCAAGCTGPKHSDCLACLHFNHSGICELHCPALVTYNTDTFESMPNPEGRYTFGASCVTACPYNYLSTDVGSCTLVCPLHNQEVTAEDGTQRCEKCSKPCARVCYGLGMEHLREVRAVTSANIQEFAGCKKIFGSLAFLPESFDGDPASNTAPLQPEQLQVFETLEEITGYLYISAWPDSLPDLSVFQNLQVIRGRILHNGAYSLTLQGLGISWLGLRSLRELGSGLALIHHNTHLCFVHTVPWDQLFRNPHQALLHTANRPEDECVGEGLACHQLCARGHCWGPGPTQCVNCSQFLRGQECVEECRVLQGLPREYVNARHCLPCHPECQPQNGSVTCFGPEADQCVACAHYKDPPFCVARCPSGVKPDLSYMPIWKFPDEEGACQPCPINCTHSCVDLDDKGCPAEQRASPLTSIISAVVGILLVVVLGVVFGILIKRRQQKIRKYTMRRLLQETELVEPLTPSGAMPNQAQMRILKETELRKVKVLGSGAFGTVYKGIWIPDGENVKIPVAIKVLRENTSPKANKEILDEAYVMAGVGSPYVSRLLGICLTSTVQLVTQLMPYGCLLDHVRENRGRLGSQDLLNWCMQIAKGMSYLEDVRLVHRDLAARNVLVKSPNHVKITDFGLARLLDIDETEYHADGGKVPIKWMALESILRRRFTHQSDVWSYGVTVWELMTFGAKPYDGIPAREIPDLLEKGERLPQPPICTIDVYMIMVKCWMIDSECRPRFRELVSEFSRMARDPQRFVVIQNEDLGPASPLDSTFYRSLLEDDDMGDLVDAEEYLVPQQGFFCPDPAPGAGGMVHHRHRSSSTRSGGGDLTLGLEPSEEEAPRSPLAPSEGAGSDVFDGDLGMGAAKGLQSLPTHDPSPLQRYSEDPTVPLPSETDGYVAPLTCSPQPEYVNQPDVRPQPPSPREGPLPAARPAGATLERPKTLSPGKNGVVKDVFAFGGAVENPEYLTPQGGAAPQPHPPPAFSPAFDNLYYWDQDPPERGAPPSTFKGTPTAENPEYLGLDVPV

With `Cc1ccc(Oc2ccc(Nc3ncnc4cc5c(nc34)N3CCN(C)C[C@H]3CO5)cc2C)cn1` [Compound 73, (S)-3-methyl-N-(3-methyl-4-((6-methylpyridin-3-yl)oxy)phenyl)-1,2,3,4,4a,5-hexahydropyrazino[1,2-d]pyrimido[4′,5′:5,6]pyrido[3,2-b][1,4]oxazin-11-amine], the results for the IC50 in experiment [1] and in experiment [2] were above 10 µM and 0.198 µM, respectively.

For the compound `Cc1c(Oc2ccn3ncnc3c2)ccc(Nc2ncnc3cc4c(nc23)N2CCN(C)C[C@H]2CO4)c1F` [Compound 74, (S)—N-(4-([1,2,4]triazolo[1,5-a]pyridin-7-yloxy)-2-fluoro-3-methylphenyl)-3-methyl-1,2,3,4,4a,5-hexahydropyrazino[1,2-d]pyrimido[4′,5′:5,6]pyrido[3,2-b][1,4]oxazin-11-amine], the IC50 in experiment [1] is above 10 µM; in experiment [2] it was 0.0981 µM.

For `Cc1cc(Nc2ncnc3cc4c(nc23)N2CCN(C)C[C@H]2CO4)c(F)cc1Oc1ccn2ncnc2c1` [Compound 75, (S)—N-(4-([1,2,4]triazolo[1,5-a]pyridin-7-yloxy)-2-fluoro-5-methylphenyl)-3-methyl-1,2,3,4,4a,5-hexahydropyrazino[1,2-d]pyrimido[4′,5′:5,6]pyrido[3,2-b][1,4]oxazin-11-amine], the IC50 is above 10 µM in experiment [1] and 0.0739 µM in experiment [2].

Regarding `Cc1cc(Nc2ncnc3ccc4c(c23)OC[C@H]2CCCCN42)ccc1Oc1ccn2ncnc2c1` [Compound 86, (R)—N-(4-([1,2,4]triazolo[1,5-a]pyridin-7-yloxy)-3-methylphenyl)-6,6a,7,8,9,10-hexahydropyrido[1′,2′:4,5][1,4]oxazino[2,3-f]quinazolin-4-amine], the IC50 in experiment [1] was above 10 µM; in experiment [2], 0.0407 µM.

Regarding `Cc1cc(Nc2ncnc3ccc4c(c23)OC[C@H]2CCCN42)ccc1Oc1ccn2ncnc2c1` [Compound 87, (R)—N-(4-([1,2,4]triazolo[1,5-a]pyridin-7-yloxy)-3-methylphenyl)-6a,7,8,9-tetrahydro-6H-pyrrolo[1′,2′:4,5][1,4]oxazino[2,3-f]quinazolin-4-amine], the IC50 is above 10 µM in experiment [1] and 0.0755 µM in experiment [2].

Turning to `Cc1c(Oc2ccn3ncnc3c2)ccc(Nc2ncnc3ccc4c(c23)OC[C@H]2COCCN42)c1F` [Compound 99, (R)—N-(4-([1,2,4]triazolo[1,5-a]pyridin-7-yloxy)-2-fluoro-3-methylphenyl)-6a,7,9,10-tetrahydro-6H-[1,4]oxazino[4′,3′:4,5][1,4]oxazino[2,3-f]quinazolin-4-amine], the IC50 in experiment [1] is above 10 µM; in experiment [2], 0.211 µM.

Consider `Cc1cc(Nc2ncnc3ccc4c(c23)OC[C@H]2COCCN42)c(F)cc1Oc1ccn2ncnc2c1` [Compound 100, (R)—N-(4-([1,2,4]triazolo[1,5-a]pyridin-7-yloxy)-2-fluoro-5-methylphenyl)-6a,7,9,10-tetrahydro-6H-[1,4]oxazino[4′,3′:4,5][1,4]oxazino[2,3-f]quinazolin-4-amine], for which the values for the IC50 in experiment [1] and in experiment [2] were above 10 µM and 0.0822 µM, respectively.

In the case of `Fc1cc(Oc2ccn3ncnc3c2)ccc1Nc1ncnc2ccc3c(c12)OC[C@H]1COCCN31` [Compound 101, (R)—N-(4-([1,2,4]triazolo[1,5-a]pyridin-7-yloxy)-2-fluorophenyl)-6a,7,9,10-tetrahydro-6H-[1,4]oxazino[4′,3′:4,5][1,4]oxazino[2,3-f]quinazolin-4-amine], the IC50 is above 10 µM in experiment [1] and 0.503 µM in experiment [2].

With `Cc1c(Oc2ccn3ncnc3c2)ccc(Nc2ncnc3cc4c(nc23)N2CCOC[C@H]2CO4)c1F` [Compound 102, (S)—N-(4-([1,2,4]triazolo[1,5-a]pyridin-7-yloxy)-2-fluoro-3-methylphenyl)-1,2,4a,5-tetrahydro-4H-[1,4]oxazino[4,3-d]pyrimido[4′,5′:5,6]pyrido[3,2-b][1,4]oxazin-11-amine], the IC50 in experiment [1] is above 10 µM; in experiment [2], 0.257 µM.

With `Cc1cc(Nc2ncnc3cc4c(nc23)N2CCOC[C@H]2CO4)c(F)cc1Oc1ccn2ncnc2c1` [Compound 103, (S)—N-(4-([1,2,4]triazolo[1,5-a]pyridin-7-yloxy)-2-fluoro-5-methylphenyl)-1,2,4a,5-tetrahydro-4H-[1,4]oxazino[4,3-d]pyrimido[4′,5′:5,6]pyrido[3,2-b][1,4]oxazin-11-amine], the IC50 was above 10 µM in experiment [1] and 0.154 µM in experiment [2].

As to `Fc1cc(Oc2ccn3ncnc3c2)ccc1Nc1ncnc2cc3c(nc12)N1CCOC[C@H]1CO3` [Compound 104, (S)—N-(4-([1,2,4]triazolo[1,5-a]pyridin-7-yloxy)-2-fluorophenyl)-1,2,4a,5-tetrahydro-4H-[1,4]oxazino[4,3-d]pyrimido[4′,5′:5,6]pyrido[3,2-b][1,4]oxazin-11-amine], the IC50 in experiment [1] is above 10 µM; in experiment [2] it was 0.495 µM.

For `Cc1cc(Nc2ncnc3cc4c(c(F)c23)N2CCOC[C@H]2CO4)ccc1Oc1ccn2ncnc2c1` [Compound 105, (S)—N-(4-([1,2,4]triazolo[1,5-a]pyridin-7-yloxy)-3-methylphenyl)-12-fluoro-1,2,4a,5-tetrahydro-4H-[1,4]oxazino[4′,3′:4,5][1,4]oxazino[3,2-g]quinazolin-11-amine], the values for the IC50 in experiment [1] and in experiment [2] were above 10 µM and 0.225 µM, respectively.

Take `Cc1cc(Nc2ncnc3cnc4c(c23)OC[C@H]2COCCN42)ccc1Oc1ccn2ncnc2c1` [Compound 106, (R)—N-(4-([1,2,4]triazolo[1,5-a]pyridin-7-yloxy)-3-methylphenyl)-6a,7,9,10-tetrahydro-6H-[1,4]oxazino[4,3-d]pyrimido[5′,4′:4,5]pyrido[3,2-b][1,4]oxazin-4-amine]: the half-maximal inhibitory concentration (IC50) in experiment [1] is above 10 µM; in experiment [2], 0.0371 µM.

Consider `Cc1cc(Nc2ncnc3cc4c(nc23)N2CCOC[C@H]2CO4)ccc1Oc1ccc2c(c1)ncn2C` [Compound 107, (S)—N-(3-methyl-4-((1-methyl-1H-benzo[d]imidazol-5-yl)oxy)phenyl)-1,2,4a,5-tetrahydro-4H-[1,4]oxazino[4,3-d]pyrimido[4′,5′:5,6]pyrido[3,2-b][1,4]oxazin-11-amine], for which the results for the IC50 in experiment [1] and in experiment [2] were above 10 µM and 0.0782 µM, respectively.

With `Cc1cc(Nc2ncnc3ccc4c(c23)OC[C@H]2COCCN42)ccc1Oc1ccc2c(c1)ncn2C` [Compound 108, (R)—N-(3-methyl-4-((1-methyl-1H-benzo[d]imidazol-5-yl)oxy)phenyl)-6a,7,9,10-tetrahydro-6H-[1,4]oxazino[4′,3′:4,5][1,4]oxazino[2,3-f]quinazolin-4-amine], the IC50 in experiment [1] came to 9.52 µM; in experiment [2], 0.0572 µM.

Consider `COC(=O)N1CCN2c3ccc4ncnc(Nc5ccc(Oc6ccn7ncnc7c6)c(C)c5)c4c3OC[C@H]2C1` [Compound 110, methyl (R)-4-((4-([1,2,4]triazolo[1,5-a]pyridin-7-yloxy)-3-methylphenyl)amino)-6a,7,9,10-tetrahydropyrazino[1′,2′:4,5][1,4]oxazino[2,3-f]quinazoline-8(6H)-carboxylate], for which the values for the IC50 in experiment [1] and in experiment [2] were above 10 µM and 0.0747 µM, respectively.
